The subject of series [1] is Mycobacterium tuberculosis. Put plainly: Antibacterial activity against Mycobacterium tuberculosis H37Rv assessed as reduction in pellet formation measured after 7 to 14 days by alamar blue assay. Format: functional. The settings on record: time 7-14 day.
Series [2] concerns Mycobacterium tuberculosis. Nature of the series: Antibacterial activity against Mycobacterium tuberculosis IAR2 assessed as reduction in pellet formation measured after 7 to 14 days by alamar blue assay. It counts as functional. The settings on record: time 7-14 day.
A further series deals with T1, N-acetyltransferase Eis (Mycobacterium tuberculosis (strain ATCC 25618 / H37Rv), UniProt P9WFK7).
T1 sequence (P9WFK7 whole entry): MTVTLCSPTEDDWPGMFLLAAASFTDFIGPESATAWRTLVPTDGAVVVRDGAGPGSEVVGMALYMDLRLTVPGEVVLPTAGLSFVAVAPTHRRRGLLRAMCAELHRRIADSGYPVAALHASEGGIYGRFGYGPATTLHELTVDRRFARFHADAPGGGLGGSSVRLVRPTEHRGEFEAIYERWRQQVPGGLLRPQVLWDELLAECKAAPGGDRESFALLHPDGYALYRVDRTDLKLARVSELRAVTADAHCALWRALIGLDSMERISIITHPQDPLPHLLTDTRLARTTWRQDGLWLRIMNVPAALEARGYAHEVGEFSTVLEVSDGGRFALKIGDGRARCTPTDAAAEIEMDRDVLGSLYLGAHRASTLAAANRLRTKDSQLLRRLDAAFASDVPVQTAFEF
Nature of the series: Inhibition of Mycobacterium tuberculosis H37Rv Eis protein using kanamycin as substrate preincubated for 10 mins followed by AcCoA addition and measured every 30 secs for 20 mins.

Series [3] concerns Mycobacterium tuberculosis. Nature of the series: Antibacterial activity against Mycobacterium tuberculosis H37Ra measured after 7 days by resazurin reduction microplate assay. The settings on record: 168 h, time 7 day. Format: functional.
Compound in series [4]: COc1ccc(C(=O)CSc2nc3ccccc3c(=N)n2-c2ccccc2)cc1
Put plainly: Competitive inhibition of Mycobacterium tuberculosis H37Rv Eis protein using varying concentrations of kanamycin as substrate assessed as Km at 6.25 uM by Lineweaver-Burk plot analysis (reference value: 448 +/- 99 microM).

Compound in series [5]: COc1ccc(C(=O)CSc2nc3ccccc3c(=N)n2-c2ccccc2)cc1
Put plainly: Competitive inhibition of Mycobacterium tuberculosis H37Rv Eis protein using varying concentrations of kanamycin as substrate assessed as Km at 11 uM by Lineweaver-Burk plot analysis (reference value: 448 +/- 99 microM).

Compound in series [6]: COc1ccc(C(=O)CSc2nc3ccccc3c(=N)n2-c2ccccc2)cc1
Put plainly: Competitive inhibition of Mycobacterium tuberculosis H37Rv Eis protein using varying concentrations of kanamycin as substrate assessed as Km at 15 uM by Lineweaver-Burk plot analysis (reference value: 448 +/- 99 microM).

Compound in series [7]: COc1ccc(C(=O)CSc2nc3ccccc3c(=N)n2-c2ccccc2)cc1
Nature of the series: Competitive inhibition of Mycobacterium tuberculosis H37Rv Eis protein using varying concentrations of kanamycin as substrate assessed as Vmax at 6.25 uM by Lineweaver-Burk plot analysis (reference value: 119 +/- 11 microM).

Compound in series [8]: COc1ccc(C(=O)CSc2nc3ccccc3c(=N)n2-c2ccccc2)cc1
Put plainly: Competitive inhibition of Mycobacterium tuberculosis H37Rv Eis protein using varying concentrations of kanamycin as substrate assessed as Vmax at 11 uM by Lineweaver-Burk plot analysis (reference value: 119 +/- 11 microM).

Compound in series [9]: COc1ccc(C(=O)CSc2nc3ccccc3c(=N)n2-c2ccccc2)cc1
Put plainly: Competitive inhibition of Mycobacterium tuberculosis H37Rv Eis protein using varying concentrations of kanamycin as substrate assessed as Vmax at 15 uM by Lineweaver-Burk plot analysis (reference value: 119 +/- 11 microM).

In brackets after ≈: the same amount, converted by molar mass. A value given as a limit tells only on which side of the number the result lay.

As to `Cc1cc(C)c2c(C(=O)NC3CCCCCC3)c[nH]c2c1`, the MIC is 4 ng/mL (≈ 0.0141 µM) in [1] and at least 250 ng/mL in series [2].
The molecule `CN1CCCC(CSc2nc(N)c3c4c(sc3n2)CCCC4)C1` (stereo not drawn) registered an IC50 against N-acetyltransferase Eis of 150 nM.
In series [3], `C=CCn1c(SCC(=O)c2ccc(Cl)c(Cl)c2)nc2sc3c(c2c1=O)CCCC3` showed an MIC of over 200 µM.
Same read-out and setting: for `NNC(=O)c1ccncc1` [ISONIAZID] the value was 0.23 µM (≈ 0.0315 µg/mL).
For `CC[C@@H](CO)NCCN[C@@H](CC)CO` [ETHAMBUTOL], the lowest concentration to inhibit growth in series [3] (MIC) was 8 µM (≈ 1.63 µg/mL).
Consider `CCCCOC(=O)/C(C#N)=C/c1c[nH]c2ccccc12`, for which the MIC in series [3] is over 200 µM.
Same read-out and setting: in the case of `C=CCn1c(SCC(=O)c2ccc(OC)cc2)nc2ccccc2c1=N` it was over 200 µM; in that of `C=CCn1c(SCC(=O)c2ccc(C)cc2)nc2sc3c(c2c1=O)CCCC3`, over 200 µM; in that of `O=C(CSc1nc2sc3c(c2c(=O)n1Cc1ccccc1)CCCC3)c1ccccc1`, over 200 µM.
As to `O=C(CSc1nc2sc3c(c2c(=O)n1-c1ccccc1)CCCC3)c1ccc(Cl)c(Cl)c1`, the MIC in series [3] was over 200 µM.
In the case of `N#C/C(=C\c1c[nH]c2ccccc12)C(=O)N1CCSCC1`, the MIC in series [3] is over 200 µM.
Same read-out and setting: in the case of `C=CCn1c(SCC(=O)c2ccccc2)nc2ccccc2c1=O` it was 200 µM (≈ 67.3 µg/mL); in that of `C=CCn1c(SCC(=O)c2ccccc2)nc2ccccc2c1=N`, 200 µM (≈ 67.1 µg/mL).
Same read-out and setting: for `Cc1ccc(C(=O)CSc2nc3sc4c(c3c(=O)n2-c2ccccc2)CCCC4)cc1` the value was over 200 µM; for `O=C(CSc1nc2sc3c(c2c(=O)n1-c1ccccc1)CCCC3)c1ccc(Cl)cc1`, over 200 µM.
Take `O=C(CSc1nc2sc3c(c2c(=O)n1Cc1ccccc1)CCCC3)c1cccc(Cl)c1`: the MIC in [3] was over 200 µM.
On the same count and under the same terms, in the case of `COC(=O)/C(C#N)=C/c1c[nH]c2ccccc12` it was over 200 µM; in that of `N=c1c2ccccc2nc(SCC(=O)c2ccc(Cl)cc2)n1-c1ccccc1`, over 200 µM.
As for `N#C/C(=C\c1c[nH]c2ccccc12)C(=O)NCc1ccccc1`, the MIC in series [3] is over 200 µM.
Still for that read-out and setting: for `CC(C)OC(=O)/C(C#N)=C/c1c[nH]c2ccccc12` the value was 100 µM (≈ 25.4 µg/mL); for `O=C(CSc1nc2sc3c(c2c(=O)n1Cc1ccccc1)CCCC3)c1ccc(Cl)c(Cl)c1`, over 200 µM.

B1: N-acetyltransferase Eis (Mycobacterium tuberculosis (strain ATCC 25618 / H37Rv)), P9WFK7 (protein)
chain: MTVTLCSPTEDDWPGMFLLAAASFTDFIGPESATAWRTLVPTDGAVVVRDGAGPGSEVVGMALYMDLRLTVPGEVVLPTAGLSFVAVAPTHRRRGLLRAMCAELHRRIADSGYPVAALHASEGGIYGRFGYGPATTLHELTVDRRFARFHADAPGGGLGGSSVRLVRPTEHRGEFEAIYERWRQQVPGGLLRPQVLWDELLAECKAAPGGDRESFALLHPDGYALYRVDRTDLKLARVSELRAVTADAHCALWRALIGLDSMERISIITHPQDPLPHLLTDTRLARTTWRQDGLWLRIMNVPAALEARGYAHEVGEFSTVLEVSDGGRFALKIGDGRARCTPTDAAAEIEMDRDVLGSLYLGAHRASTLAAANRLRTKDSQLLRRLDAAFASDVPVQTAFEF
For the molecule B1, the Km in [4] stood at 717 µM; in series [5] it was 721 µM; in series [6], 632 µM. The figures for the Vmax in series [7], in series [8] and in series [9] were 112 µM/s, 108 µM/s and 94 µM/s, respectively.

The values are drawn from ChEMBL document CHEMBL5550169, “A consensus reverse docking approach for identification of a competitive inhibitor of acetyltransferase enhanced intracellular survival protein from Mycobacterium tuberculosis” (Bioorg Med Chem, 2024).
